Measured values: PMC9412875, “^64Cu-DOTHA2-PSMA, a Novel PSMA PET Radiotracer for Prostate Cancer with a Long Imaging Time Window” (Pharmaceuticals, 2022)

How the values were obtained:
[1] = Lipophilicity (log D), octanol/PBS partition; type: physicochemical; settings: octanol / PBS pH 7.4, triplicate
Protocol: For log D measurements, 8 MBq of ^64Cu-DOTHA2-PSMA was added to a pre-saturated mixture of phosphate-buffered saline pH 7.4 (500 µL) and octanol (500 µL). Samples were shaken for 30 min at room temperature, centrifuged at 7000 rpm for 5 min, and 100 µL of each phase was counted using a Packard Cobra gamma counter. Experiments were performed in triplicate and the value was presented as log Dmean ± SD, where D was calculated as D = (Average of CPM in octanol / CPM in PBS).

LNCaP cells = experiment: Cellular uptake and internalization assays; type: cell-based, human; settings: for cellular uptake: n = 9
Protocol: Here, 12-well polylysine-coated Cellbind plates were seeded with 150 × 10^3 LNCaP cells with 1.75 mL of cell media. At 70–100% confluence (3 days of growth), the cell medium was changed and 37 kBq of ^64Cu-DOTHA2-PSMA in 1 mL of cell medium was added to each well of group 1 and 160 kBq to each of group 2.
Uptake and internalization assay cells were incubated for 15, 30, 45, 60 min, 2 h, 3 h, and 4 h in group 1 or 4 h, 8 h, 12 h, 24 h, 36 h, and 48 h in group 2 (3 wells per time point in all groups). Repetition of the 4 h time point was used to ensure reproducibility. After incubation, the medium was removed, and cells were washed with 1 mL of cold PBS. For the uptake assays, cells were directly treated with 1 mL of trypsin to be collected and their activity was assayed (HIDEX AMG Gamma Counter 425-601). For internalization assays, cells were incubated with 1 mL of acidic glycine (50 mM, pH = 2,8) for 5 min to remove membrane-bound ^64Cu-DOTHA2-PSMA, washed with 3 mL of cold PBS, and collected using 1 mL of trypsin to be measured in the gamma-counter. Uptake and internalization results were expressed as the percentage of activity injected in the well (IA) in functions of time, normalized to 10^6 cells.
All the assays were performed at least 3 times, each with different ^64Cu-DOTHA2-PSMA production and cell passage. Cells were counted in 3 wells for each protocol (uptake, internalization, and efflux) on day 1 and day 3 of each experiment and an average for cells numbers at day 2.

[2] = Balb/c mice biodistribution; type: in vivo
Protocol: ^64Cu-DOTHA2-PSMA biodistribution was assessed in balb/c mice (n = 30) by harvesting blood and organs at 1 h, 2 h, 4 h, 24 h, and 48 h p.i. to measure tissue radioactivity and weight. Results were reported as the %IA/g of tissue and compared with the radiotracer used for clinical imaging in our facility, ^68Ga-PSMA-617.
(§1) Balb/c mice (n = 30) were injected with a bolus of ^64Cu-DOTHA2-PSMA by the tail vein (in 0.3 mL of saline: 3 MBq for 1 h, 2 h, and 4 h p.i., 7.5 MBq for 24 h p.i. and 21 MBq for 48 h p.i.). Injected activity had to be increased for later time points to ensure reliable detection and reliability in organs with a low uptake, e.g., the brain. At all timepoints, blood was collected using a heparin-coated syringe by femoral vein puncture and mice were then euthanized and dissected. Harvested tissues were rinsed, blotted dry, and then weighted and counted in gamma counter. The results are reported as the %IA per gram of tissue. The biodistribution results were compared with the ^68Ga-PSMA-617 results obtained by our team at 1 h and 2 h p.i.

LNCaP tumor = experiment: Tumor-bearing mice biodistribution after PET; type: in vivo, NRG mice; settings: 24 h p.i.
Protocol: as §1
PET imaging of NRG mice and supplemental tumor-bearing mice were biodistributed 24 h p.i. as described for balb/c mice.

[3] = Blocked (n=4), co-injection of natCu-DOTHA2-PSMA

## CN([O-])C(=O)CN1CCN(CC(=O)NCC2CCC(C(=O)NC(Cc3ccc4ccccc4c3)C(=O)NCCCCC(NC(=O)NC(CCC(=O)O)C(=O)O)C(=O)O)CC2)CCN(CC(=O)N(C)[O-])CCN(CC(=O)N(C)O)CC1.[64Cu+2] (centres unmarked) [^64Cu-DOTHA2-PSMA]
[1]
  log D: -0.96 ± 0.61
LNCaP cells; 30 min
  cellular uptake: 22.0 ± 8.8 % IA/10^6 cells
LNCaP cells; 2 h
  internalization: 12.2 ± 6.7 % IA/10^6 cells
LNCaP cells; 48 h
  internalization: 34.1 ± 4.9 % IA/10^6 cells
  cellular uptake: 34.5 ± 13.6 % IA/10^6 cells
[2]; 2 h p.i.
  kidney uptake difference to 68Ga-PSMA-617 (lower): 23.3%
  liver uptake: 29.9 ± 5.0 % IA/g
[2]; 4 h p.i.
  liver uptake (peak): 30.2 ± 4.2 % IA/g
[2]; up to 48 h p.i.
  uptake in the kidneys (highest over time points): at most 15.8 ± 7.0 % IA/g
LNCaP tumor; [3]
  Adrenals uptake: 9.02 %IA/g
  Blood uptake: 1.91 %IA/g
  Bone uptake: 0.91 %IA/g
  Brain uptake: 0.38 %IA/g
  Fat uptake: 0.26 %IA/g
  Heart uptake: 3.00 %IA/g
  Intestin uptake: 8.53 %IA/g
  Kidneys uptake: 6.86 %IA/g
  LNCaP tumor uptake: 7.44 %IA/g
  Lungs uptake: 5.99 %IA/g
  Muscles uptake: 0.47 %IA/g
  Pancreas uptake: 2.09 %IA/g
  Plasma uptake: 2.54 %IA/g
  Salivary gl. uptake: 1.84 %IA/g
  Seminal gl. uptake: 0.59 %IA/g
  Skin uptake: 0.50 %IA/g
  Spleen uptake: 6.99 %IA/g
  Stomach uptake: 5.55 %IA/g
  Tail uptake: 1.36 %IA/g
  Testis uptake: 1.03 %IA/g
  Thyroid uptake: 1.33 %IA/g
  liver uptake: 15.15 %IA/g
LNCaP tumor; Non-blocked (n=11)
  Adrenals uptake: 4.70 %IA/g
  Blood uptake: 3.46 %IA/g
  Bone uptake: 2.38 %IA/g
  Brain uptake: 0.75 %IA/g
  Fat uptake: 0.63 %IA/g
  Heart uptake: 5.20 %IA/g
  Intestin uptake: 15.69 %IA/g
  Kidneys uptake: 13.24 %IA/g
  LNCaP tumor uptake: 17.33 %IA/g
  Lungs uptake: 14.30 %IA/g
  Muscles uptake: 1.10 %IA/g
  Pancreas uptake: 2.80 %IA/g
  Plasma uptake: 4.52 %IA/g
  Salivary gl. uptake: 4.18 %IA/g
  Seminal gl. uptake: 1.13 %IA/g
  Skin uptake: 1.07 %IA/g
  Spleen uptake: 10.10 %IA/g
  Stomach uptake: 9.17 %IA/g
  Tail uptake: 2.37 %IA/g
  Testis uptake: 1.96 %IA/g
  Thyroid uptake: 2.57 %IA/g
  liver uptake: 28.54 %IA/g
